Measured values as given in article PMC10744196, “Characterization of CrufCSP1 and Its Potential Involvement in Host Location by Cotesia ruficrus (Hymenoptera: Braconidae), an Indigenous Parasitoid of Spodoptera frugiperda (Lepidoptera: Noctuidae) in China” (Insects, 2023).
Read-outs that look alike come from different tables or passages of the source.

Assays:
CrufCSP1 [1] = assay: Fluorescence competitive binding assay with 1-NPN as probe; parameters: species or system Cotesia ruficrus; conditions: for IC50: recombinant CrufCSP1 2 μM, ligand 0 to 30 μM, tris-HCl pH 7.4
Method: (§1) The binding affinity between CrufCSP1 and the selected volatile compounds was determined using an F-7000 fluorescence spectrophotometer (Hitachi, Tokyo, Japan). N-phenyl-1-naphthylamine (1-NPN), a fluorescence probe, was used to assess the binding affinity. A total of 24 volatiles, i.e., alcohols (heptanol, undecanol, tetradecanol, cis-3-hexen-1-ol, 1,14-tetradecanediol, 2-hexanol, phytol, and linalool), aldehydes (hexanal, heptanal, octanal, nonanal, decanal, dodecanal, pentadecanal, benzaldehyde, p-methyl benzaldehyde, and trans-2-hexenal), and others (2-hydroxy-5-methylacetophenone, 2-heptanone, palmitic acid, N,N-dimethylcaprylamide, DMNT, and cis-3-hexenyl acetate), were selected for the fluorescence binding assay with CrufCSP1. Of these compounds, our research group previously identified undecanol, tetradecanol, 2-hexanol, 1,14-tetradecanediol, phytol, dodecanal, pentadecanal, p-methyl benzaldehyde, palmitic acid, 2-hydroxy-5-methylacetophenone, and N,N-dimethylcaprylamide in the larvae of S. frugiperda. The remaining compounds were chosen based on previous studies that identified them as corn volatiles.
To prepare the tested chemicals, all were dissolved in chromatographic grade methanol to achieve a 100 mM solution, which was then stored at −20 °C. Before use, this solution was diluted to 1 mM. CrufCSP1 was dissolved in 20 mM of tris-HCl (pH 7.4) and then diluted to a 2 μM working solution. To ensure the binding affinity of 1-NPN to the protein, the CrufCSP1 solution was titrated with 1-NPN with a concentration range of 2 to 20 μM. For the fluorescence competitive binding assays, each ligand was added to a mixture containing CrufCSP1 (2 μM) and 1-NPN (2 μM) at concentrations ranging from 0 to 30 μM. The maximum fluorescence intensity was then recorded and plotted against the ligand concentration based on the average of the three repeats. The dissociation constant (Kd) for binding between CrufCSP1 and 1-NPN was calculated using the Scatchard linear regressive equation in the software GraphPad Prism 8.0 (GraphPad Software Inc., La Jolla, CA, USA). Additionally, the ligand-binding affinity (Ki) was calculated utilizing the following equation: Ki=[IC50]/(1+[1−NPN]/K1−NPN) where IC50 represents the maximum concentration at which the ligand replaces 50% of the 1 − NPN fluorescence, [1 − NPN] denotes the free concentration of 1-NPN, and K1-NPN represents the dissociation constant of the protein/1 − NPN complex.

CrufCSP1 [2] = assay: Binding of fluorescent probe 1-NPN to recombinant CrufCSP1 (Scatchard plot); parameters: species or system Cotesia ruficrus; conditions: CrufCSP1 2 μM titrated with 1-NPN 2 to 20 μM, read-out: dissociation constant toward 1-NPN
Method: as §1, with “Of these compounds, our research group previously identified undecanol, tetradecanol, 2-hexanol, 1,14-tetradecanediol, phytol, dodecanal, pentadecanal, p-methyl benzaldehyde, palmitic acid, 2-hydroxy-5-methylacetophenone, and N,N-dimethylcaprylamide in the larvae of S. frugiperda. The remaining compounds were chosen based on previous studies that identified them as corn volatiles.” left out
To prepare the tested chemicals, all were dissolved in chromatographic grade methanol to achieve a 100 mM solution, which was then stored at −20 °C. […] For the fluorescence competitive binding assays, each ligand was added to a mixture containing CrufCSP1 (2 μM) and 1-NPN (2 μM) at concentrations ranging from 0 to 30 μM. The maximum fluorescence intensity was then recorded and plotted against the ligand concentration based on the average of the three repeats. […]

[3] = calculated from IC50: Ki=[IC50]/(1+[1-NPN]/K1-NPN), CrufCSP1 2 μM, 1-NPN 2 μM

| Ki (CrufCSP1 [1]; [3]) [µM] | IC50 (CrufCSP1 [1]; 1-NPN 2 μM) [µM] | Compound | other results |
| --- | --- | --- | --- |
| > 50 | > 50 | OCCCCCCCCCCCCCCO [1,14-Tetradecanediol] | – |
| – | – | c1ccc(Nc2cccc3ccccc23)cc1 [1-NPN, N-phenyl-1-naphthylamine] | Kd (CrufCSP1 [2]): 7.67 µM |
| > 50 | > 50 | CCCCCC(C)=O [2-Heptanone] | – |
| > 50 | > 50 | CCCCC(C)O (centres unmarked) [2-Hexanol] | – |
| 20 | 22.8 | CC(=O)c1cc(C)ccc1O [2-Hydroxy-5-methylacetophenone] | Ki (CrufCSP1 [1]; calculated from IC50: Ki=[IC50]/(1+[1-NPN]/K1-NPN), CrufCSP1 2 μM, 1-NPN 2 μM, listed as 2-hydroxy-5-methylacetophenone): < 20 µM |
| 21.8 | 24.9 | CCCCCCCCCC=O [Decanal] | – |
| 36 | 41.1 | CCCCCCCCCCCC=O [Dodecanal] | – |
| > 50 | > 50 | CCCCCCC=O [Heptanal] | – |
| 27.7 | 31.6 | CCCCCCCO [Heptanol] | – |
| 19.4 | 22.1 | CCCCCC=O [Hexanal] | Ki (CrufCSP1 [1]; calculated from IC50: Ki=[IC50]/(1+[1-NPN]/K1-NPN), CrufCSP1 2 μM, 1-NPN 2 μM, listed as hexanal): < 20 µM |
| 19.8 | 22.6 | C=CC(C)(O)CCC=C(C)C (centres unmarked) [Linalool] | Ki (CrufCSP1 [1]; calculated from IC50: Ki=[IC50]/(1+[1-NPN]/K1-NPN), CrufCSP1 2 μM, 1-NPN 2 μM, listed as linalool): < 20 µM |
| 19.3 | 22 | CCCCCCCC(=O)N(C)C [N,N-Dimethylcaprylamide] | Ki (CrufCSP1 [1]; calculated from IC50: Ki=[IC50]/(1+[1-NPN]/K1-NPN), CrufCSP1 2 μM, 1-NPN 2 μM, listed as N,N-dimethylcaprylamide): < 20 µM |
| > 50 | > 50 | CCCCCCCCC=O [Nonanal] | – |
| 15 | 17.2 | CCCCCCCC=O [Octanal] | Ki (CrufCSP1 [1]; calculated from IC50: Ki=[IC50]/(1+[1-NPN]/K1-NPN), CrufCSP1 2 μM, 1-NPN 2 μM, listed as octanal): < 20 µM |
| > 50 | > 50 | CCCCCCCCCCCCCCCC(=O)O [Palmitic acid] | – |
| > 50 | > 50 | CCCCCCCCCCCCCCO [Tetradecanol] | – |
| > 50 | > 50 | CCCCCCCCCCCO [Undecanol] | – |
| 24.7 | 28.2 | CC/C=C\CCO [cis-3-Hexen-1-ol] | – |
| 29.2 | 33.4 | CC/C=C\CCOC(C)=O [cis-3-Hexenyl acetate] | – |

| Compound | Ki (CrufCSP1 [1]; [3]) [µM] | IC50 (CrufCSP1 [1]; 1-NPN 2 μM) [µM] | other results |
| --- | --- | --- | --- |
| O=Cc1ccccc1 [Benzaldehyde] | – | 17.4 | Ki (CrufCSP1 [1]): 15.2 µM; Ki (CrufCSP1 [1]; listed as benzaldehyde): < 20 µM |
| C=C/C=C(\C)CCC=C(C)C [DMNT] | – | > 50 | Ki (CrufCSP1 [1]): > 50 µM |
| CCCCCCCCCCCCCCC=O [Pentadecanal] | – | 44.5 | Ki (CrufCSP1 [1]): 39 µM |
| Cc1ccc(C=O)cc1 [p-Methyl benzaldehyde] | – | 46 | Ki (CrufCSP1 [1]): 40.3 µM |
| CCC/C=C/C=O [trans-2-Hexenal] | – | 16.5 | Ki (CrufCSP1 [1]): 14.5 µM; Ki (CrufCSP1 [1]; listed as trans-2-hexenal): < 20 µM |
| Phytol | – | > 50 | Ki (CrufCSP1 [1]): > 50 µM |
